According to patent publication US20200339691A1, “PROTEINACEOUS MOLECULES AND USES THEREFOR” (priority 2018, published 2020):
Where a SMILES comes first, the peptide text is derived from it. The star is where a group is joined. Myristoyl = CCCCCCCCCCCCCC(=O)*

Columns and labels:
[1] = system: CD44^hiCD24^lo CSCs in MDA-MB-231 cells; experiment: FACS analysis of CD44^hiCD24^lo cancer stem cells in MDA-MB-231 cells treated with P1 analogues; type: cell-based, human; settings: 50 μM peptide, 48 hours; for CD44^hiCD24^lo CSCs (%) / COI, Live Single CD44^hiCD24^lo CSCs (Cell Count): n = 1; for Average Inhibition of CSCs (%) / CD44^hiCD24^lo CSCs (%) Repeat 1 / CD44^hiCD24^lo CSCs (%) Repeat 2 / CD44^hiCD24^lo CSCs (%) Repeat 3: n = 3
Experimental: Analogues of P1 (Table 6) were designed and synthesized in accordance with the procedure of Example 5. The ability of these analogues to inhibit cancer stem cells was determined using FACS analysis on MDA-MB-231 cells, which constitutively contain approximately 90% CD44^hiCD24^lo cancer stem cells, treated with the peptides.
(§1) Non-adherent cells were removed during the washing steps.

MDA-MB-231 cells = type: cell-based, human; settings: 50 μM peptide, 48 hours, n = 1
From the text: as §1
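For COI, Live Single Cells (Cell Count) in this document: live means Hoechst-negative events among single cells.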

SMILES | Inhibition of CSCs (%) Repeat 1 [1] | Inhibition of CSCs (%) Repeat 2 [1] | Inhibition of CSCs (%) Repeat 3 [1] | CD44^hiCD24^lo CSCs (%) [1] | COI, Live Single CD44^hiCD24^lo CSCs (Cell Count) [1] | Average Inhibition of CSCs (%) [1] | CD44^hiCD24^lo CSCs (%) Repeat 1 [1] | CD44^hiCD24^lo CSCs (%) Repeat 2 [1] | CD44^hiCD24^lo CSCs (%) Repeat 3 [1] | COI (Cell Count) (MDA-MB-231 cells) | COI, Live Single Cells (Cell Count) (MDA-MB-231 cells) | COI, Single (Cell Count) (MDA-MB-231 cells) | Total Cell Count (MDA-MB-231 cells)
CCCCCCCCCCCCCC(=O)N[C@@H](C)C(=O)N[C@@H](Cc1ccccc1)C(=O)N[C@H](C(=O)N[C@@H](Cc1ccccc1)C(=O)N[C@@H](CCCNC(=N)N)C(=O)N[C@@H](CC(C)C)C(=O)N[C@@H](CCCNC(=N)N)C(=O)N[C@@H](CCCCN)C(=O)NCC(=O)N[C@@H](CCCNC(=N)N)C(=O)N[C@@H](CCSC)C(=O)N[C@@H](CCSC)C(=O)N[C@@H](CC(=O)O)C(=O)N[C@H](C(=O)N[C@@H](CCCCN)C(=O)N[C@@H](CCCCN)C(N)=O)C(C)C)[C@@H](C)CC [Peptide 2815302, Myristoyl-AFIFRLRKGRMMDVKK-NH2] (Myristoyl-AFIFRLRKGRMMDVKK-NH2) | 89.69% | 91.79% | 94.73% | 19.63% | 86 | 92.07% | 9.24% | 7.36% | 4.73% | 516 | 438 | 466 | 5074
CCCCCCCCCCCCCC(=O)N[C@H](C(=O)N[C@@H](C)C(=O)N[C@H](C(=O)N[C@@H](Cc1ccccc1)C(=O)N[C@@H](CCCNC(=N)N)C(=O)N[C@@H](CC(C)C)C(=O)N[C@@H](CCCNC(=N)N)C(=O)N[C@@H](CCCCN)C(=O)NCC(=O)N[C@@H](CCCNC(=N)N)C(=O)N[C@@H](CCSC)C(=O)N[C@@H](CCSC)C(=O)N[C@@H](CC(=O)O)C(=O)N[C@H](C(=O)N[C@@H](CCCCN)C(=O)N[C@@H](CCCCN)C(N)=O)C(C)C)[C@@H](C)CC)[C@@H](C)O [Peptide 2815303, Myristoyl-TAIFRLRKGRMMDVKK-NH2] (Myristoyl-TAIFRLRKGRMMDVKK-NH2) | 76.31% | 81.14% | 80.95% | 25.00% | 2 | 79.47% | 21.23% | 16.92% | 17.09% | 18 | 8 | 17 | 10195
CCCCCCCCCCCCCC(=O)N[C@H](C(=O)N[C@@H](Cc1ccccc1)C(=O)N[C@@H](C)C(=O)N[C@@H](Cc1ccccc1)C(=O)N[C@@H](CCCNC(=N)N)C(=O)N[C@@H](CC(C)C)C(=O)N[C@@H](CCCNC(=N)N)C(=O)N[C@@H](CCCCN)C(=O)NCC(=O)N[C@@H](CCCNC(=N)N)C(=O)N[C@@H](CCSC)C(=O)N[C@@H](CCSC)C(=O)N[C@@H](CC(=O)O)C(=O)N[C@H](C(=O)N[C@@H](CCCCN)C(=O)N[C@@H](CCCCN)C(N)=O)C(C)C)[C@@H](C)O [Peptide 2815304, Myristoyl-TFAFRLRKGRMMDVKK-NH2] (Myristoyl-TFAFRLRKGRMMDVKK-NH2) | 43.62% | 47.79% | 51.20% | 68.03% | 83 | 47.54% | 50.53% | 46.84% | 43.79% | 157 | 122 | 137 | 4317
CCCCCCCCCCCCCC(=O)N[C@H](C(=O)N[C@@H](Cc1ccccc1)C(=O)N[C@H](C(=O)N[C@@H](C)C(=O)N[C@@H](CCCNC(=N)N)C(=O)N[C@@H](CC(C)C)C(=O)N[C@@H](CCCNC(=N)N)C(=O)N[C@@H](CCCCN)C(=O)NCC(=O)N[C@@H](CCCNC(=N)N)C(=O)N[C@@H](CCSC)C(=O)N[C@@H](CCSC)C(=O)N[C@@H](CC(=O)O)C(=O)N[C@H](C(=O)N[C@@H](CCCCN)C(=O)N[C@@H](CCCCN)C(N)=O)C(C)C)[C@@H](C)CC)[C@@H](C)O [Peptide 2815305, Myristoyl-TFIARLRKGRMMDVKK-NH2] (Myristoyl-TFIARLRKGRMMDVKK-NH2) | 7.19% | 10.83% | 2.94% | 93.18% | 82 | 6.99% | 83.18% | 80.00% | 87.10% | 129 | 88 | 121 | 2870
CCCCCCCCCCCCCC(=O)N[C@H](C(=O)N[C@@H](Cc1ccccc1)C(=O)N[C@H](C(=O)N[C@@H](Cc1ccccc1)C(=O)N[C@@H](C)C(=O)N[C@@H](CC(C)C)C(=O)N[C@@H](CCCNC(=N)N)C(=O)N[C@@H](CCCCN)C(=O)NCC(=O)N[C@@H](CCCNC(=N)N)C(=O)N[C@@H](CCSC)C(=O)N[C@@H](CCSC)C(=O)N[C@@H](CC(=O)O)C(=O)N[C@H](C(=O)N[C@@H](CCCCN)C(=O)N[C@@H](CCCCN)C(N)=O)C(C)C)[C@@H](C)CC)[C@@H](C)O [Peptide 2815306, Myristoyl-TFIFALRKGRMMDVKK-NH2] (Myristoyl-TFIFALRKGRMMDVKK-NH2) | 67.33% | 69.17% | 70.79% | 27.73% | 66 | 69.09% | 29.28% | 27.66% | 26.21% | 323 | 238 | 280 | 9352
CCCCCCCCCCCCCC(=O)N[C@H](C(=O)N[C@@H](Cc1ccccc1)C(=O)N[C@H](C(=O)N[C@@H](Cc1ccccc1)C(=O)N[C@@H](CCCNC(=N)N)C(=O)N[C@@H](C)C(=O)N[C@@H](CCCNC(=N)N)C(=O)N[C@@H](CCCCN)C(=O)NCC(=O)N[C@@H](CCCNC(=N)N)C(=O)N[C@@H](CCSC)C(=O)N[C@@H](CCSC)C(=O)N[C@@H](CC(=O)O)C(=O)N[C@H](C(=O)N[C@@H](CCCCN)C(=O)N[C@@H](CCCCN)C(N)=O)C(C)C)[C@@H](C)CC)[C@@H](C)O [Peptide 2815307, Myristoyl-TFIFRARKGRMMDVKK-NH2] (Myristoyl-TFIFRARKGRMMDVKK-NH2) | 24.79% | 25.54% | 36.94% | 62.77% | 86 | 29.09% | 67.40% | 66.80% | 56.59% | 182 | 137 | 164 | 10681
CCCCCCCCCCCCCC(=O)N[C@H](C(=O)N[C@@H](Cc1ccccc1)C(=O)N[C@H](C(=O)N[C@@H](Cc1ccccc1)C(=O)N[C@@H](CCCNC(=N)N)C(=O)N[C@@H](CC(C)C)C(=O)N[C@@H](C)C(=O)N[C@@H](CCCCN)C(=O)NCC(=O)N[C@@H](CCCNC(=N)N)C(=O)N[C@@H](CCSC)C(=O)N[C@@H](CCSC)C(=O)N[C@@H](CC(=O)O)C(=O)N[C@H](C(=O)N[C@@H](CCCCN)C(=O)N[C@@H](CCCCN)C(N)=O)C(C)C)[C@@H](C)CC)[C@@H](C)O [Peptide 2815308, Myristoyl-TFIFRLAKGRMMDVKK-NH2] (Myristoyl-TFIFRLAKGRMMDVKK-NH2) | 51.70% | 45.08% | 50.47% | 54.60% | 89 | 49.08% | 43.29% | 49.27% | 44.44% | 340 | 163 | 301 | 9921
CCCCCCCCCCCCCC(=O)N[C@H](C(=O)N[C@@H](Cc1ccccc1)C(=O)N[C@H](C(=O)N[C@@H](Cc1ccccc1)C(=O)N[C@@H](CCCNC(=N)N)C(=O)N[C@@H](CC(C)C)C(=O)N[C@@H](CCCNC(=N)N)C(=O)N[C@@H](CCCCN)C(=O)N[C@@H](C)C(=O)N[C@@H](CCCNC(=N)N)C(=O)N[C@@H](CCSC)C(=O)N[C@@H](CCSC)C(=O)N[C@@H](CC(=O)O)C(=O)N[C@H](C(=O)N[C@@H](CCCCN)C(=O)N[C@@H](CCCCN)C(N)=O)C(C)C)[C@@H](C)CC)[C@@H](C)O [Peptide 2815310, Myristoyl-TFIFRLRKARMMDVKK-NH2] (Myristoyl-TFIFRLRKARMMDVKK-NH2) | 38.81% | 39.40% | 41.35% | 57.14% | 4 | 39.85% | 54.84% | 54.37% | 52.63% | 18 | 7 | 16 | 8883
